Consider 3 molecules from ChEMBL document CHEMBL3621085, “Tetrazole regioisomers in the development of nitro group-containing antitubercular agents” (Medchemcomm, 2015).

The target of one data set is T1, Heme oxygenase 1 (Homo sapiens, UniProt P09601).
T1 sequence (P09601 whole entry): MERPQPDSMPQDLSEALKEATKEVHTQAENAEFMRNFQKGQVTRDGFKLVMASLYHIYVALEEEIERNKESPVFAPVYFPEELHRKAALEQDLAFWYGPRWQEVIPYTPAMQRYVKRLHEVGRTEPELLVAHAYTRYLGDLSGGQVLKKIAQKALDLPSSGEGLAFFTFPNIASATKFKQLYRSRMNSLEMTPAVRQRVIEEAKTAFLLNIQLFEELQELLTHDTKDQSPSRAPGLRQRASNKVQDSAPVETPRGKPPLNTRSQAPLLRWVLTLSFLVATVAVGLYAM
As to the kind of experiment: Inhibition of heme oxygenase-1 (unknown origin).

The test system of another data set is Pichia kudriavzevii. As to the kind of experiment: Antifungal activity against Candida krusei E28 after 24 to 48 hrs by broth micro dilution method. The data set is classed as functional, organism-based.
In data set [1] the test system is Salmonella typhimurium. As to the kind of experiment: Mutagenic activity in Salmonella typhimurium TA98 assessed as induction of reverse mutation at 50 uM. The class given is toxicity, organism-based. The conditions noted are these: salmonella enterica subsp. enterica serovar typhimurium.
The test system of data set [2] is Klebsiella pneumoniae. As to the kind of experiment: Antibacterial activity against Klebsiella pneumoniae J 14368/08 after 24 to 48 hrs by broth micro dilution method. The class given is functional, organism-based.
For the next data set, the system named is Lichtheimia corymbifera. As to the kind of experiment: Antifungal activity against Absidia corymbifera 272 after 24 to 48 hrs by broth micro dilution method. The class given is functional, organism-based.
The subject of the next data set is Nakaseomyces glabratus. As to the kind of experiment: Antifungal activity against Candida glabrata 20/I after 24 to 48 hrs by broth micro dilution method. The data set is classed as functional, organism-based.
Data set [3] concerns Staphylococcus epidermidis. As to the kind of experiment: Antibacterial activity against Staphylococcus epidermidis H 6966/08 after 24 to 48 hrs by broth micro dilution method. The class given is functional, organism-based.
For data set [4], the system named is Mycobacterium kansasii. As to the kind of experiment: Antimycobacterial activity against Mycobacterium kansasii My 235/80 after 7 days by micromethod. The class given is functional. The following applies: My 235/80, 168 h.
Another data set has as its system Candida tropicalis. As to the kind of experiment: Antifungal activity against Candida tropicalis 156 after 24 to 48 hrs by broth micro dilution method. The data set is classed as functional, organism-based.
The test system of data set [5] is Staphylococcus aureus. As to the kind of experiment: Antibacterial activity against Staphylococcus aureus ATCC 6538 after 24 to 48 hrs by broth micro dilution method. The class given is functional, organism-based.
In data set [6] the test system is Mycobacterium kansasii. As to the kind of experiment: Antimycobacterial activity against Mycobacterium kansasii 6509/96 after 14 days by micromethod. The class given is functional. The following applies: 6509/96, 336 h.
Data set [7] is described as follows: Cytotoxicity against CHOK1 cells assessed as viability after 24 hrs by MTT assay. The data set is classed as cell-based. The conditions noted are these: Cricetulus griseus, CHO-K1, 24 h. A general note: Tetrazolium dyes change colour on reduction, which living cells bring about.
Data set [8] concerns Mycobacterium tuberculosis. As to the kind of experiment: Antimycobacterial activity against Mycobacterium tuberculosis My 331/88 after 14 days by micromethod. The data set is classed as functional. The conditions noted are these: My 331/88, 336 h.
The next data set relates to Enterococcus faecalis. As to the kind of experiment: Antibacterial activity against Enterococcus faecalis J 14365/08 after 24 to 48 hrs by broth micro dilution method. The data set is classed as functional, organism-based.
Data set [9] concerns Mycobacterium kansasii. As to the kind of experiment: Antimycobacterial activity against Mycobacterium kansasii 6509/96 after 7 days by micromethod. The conditions noted are these: 6509/96, 168 h. The class given is functional.
Data set [10] concerns Klebsiella pneumoniae. As to the kind of experiment: Antibacterial activity against ESBL positive Klebsiella pneumoniae J 14368/08 after 24 to 48 hrs by broth micro dilution method. The class given is functional, organism-based.
The test system of another data set is Trichosporon asahii. As to the kind of experiment: Antifungal activity against Trichosporon asahii 1188 after 24 to 48 hrs by broth micro dilution method. The class given is functional, organism-based.
Data set [11] relates to Mycobacterium kansasii. As to the kind of experiment: Antimycobacterial activity against Mycobacterium kansasii 6509/96 after 21 days by micromethod. The class given is functional. The conditions noted are these: 6509/96, 504 h.
In a further data set the test system is Pseudomonas aeruginosa. As to the kind of experiment: Antibacterial activity against Pseudomonas aeruginosa ATCC 9027 after 24 to 48 hrs by broth micro dilution method. The class given is functional, organism-based.
The test system of data set [12] is Klebsiella pneumoniae. As to the kind of experiment: Antibacterial activity against Klebsiella pneumoniae D 11750/08 after 24 to 48 hrs by broth micro dilution method. The class given is functional, organism-based.
Data set [13] has as its system Salmonella typhimurium. As to the kind of experiment: Mutagenic activity in Salmonella typhimurium TA100 assessed as induction of reverse mutation at 50 uM. The data set is classed as toxicity, organism-based. The conditions noted are these: salmonella enterica subsp. enterica serovar typhimurium.
Data set [14] concerns Mycobacterium kansasii. As to the kind of experiment: Antimycobacterial activity against Mycobacterium kansasii My 235/80 after 21 days by micromethod. The data set is classed as functional. The following applies: My 235/80, 504 h.
In data set [15] the test system is Mycobacterium kansasii. As to the kind of experiment: Antimycobacterial activity against Mycobacterium kansasii My 235/80 after 14 days by micromethod. The class given is functional. The following applies: My 235/80, 336 h.
The next data set has as its system Candida albicans. As to the kind of experiment: Antifungal activity against Candida albicans ATCC 44859 after 24 to 48 hrs by broth micro dilution method. The class given is functional, organism-based.
The next data set has as its system Aspergillus fumigatus. As to the kind of experiment: Antifungal activity against Aspergillus fumigatus 2318 after 24 to 48 hrs by broth micro dilution method. The class given is functional, organism-based.
In the next data set the test system is Escherichia coli. As to the kind of experiment: Antibacterial activity against Escherichia coli ATCC 8739 after 24 to 48 hrs by broth micro dilution method. The data set is classed as functional, organism-based.
The test system of data set [16] is Staphylococcus aureus. As to the kind of experiment: Antibacterial activity against methicillin-resistant Staphylococcus aureus H 5996/08 after 24 to 48 hrs by broth micro dilution method. The data set is classed as functional, organism-based.
In data set [17] the test system is Trichophyton mentagrophytes. As to the kind of experiment: Antifungal activity against Trichophyton mentagrophytes 445 after 72 to 120 hrs by broth micro dilution method. The data set is classed as functional, organism-based.
In data set [18] the test system is Mycobacterium avium. As to the kind of experiment: Antimycobacterial activity against Mycobacterium avium My 330/88 after 21 days by micromethod. The data set is classed as functional. The conditions noted are these: My 330/88, 504 h.
The test system of data set [19] is Mycobacterium avium. As to the kind of experiment: Antimycobacterial activity against Mycobacterium avium My 330/88 after 14 days by micromethod. The data set is classed as functional. The conditions noted are these: My 330/88, 336 h.
The test system of data set [20] is Mycobacterium tuberculosis. As to the kind of experiment: Antimycobacterial activity against Mycobacterium tuberculosis My 331/88 after 21 days by micromethod. The class given is functional. The conditions noted are these: My 331/88, 504 h.

≈ marks a conversion by molar mass, not a printed value. Calls of active or inactive are those of the source. The calls are words filed in the database; no cut-off is given here.

As for `O=C(CCc1ccccc1)Cn1cnnn1`, the half-inhibitory concentration (IC50) (in general, the midpoint of a concentration-inhibition curve) against Heme oxygenase 1 worked out at 2.6 µM.

In the case of `O=[N+]([O-])c1cc(C[Se]c2nnnn2Cc2ccccc2)cc([N+](=O)[O-])c1`, the result (with Pichia kudriavzevii; with Klebsiella pneumoniae [2]; with Lichtheimia corymbifera; with Nakaseomyces glabratus; in [3]; in the data set on Candida tropicalis) was inactive. The result with Staphylococcus aureus [5], in the data set with Enterococcus faecalis, in the data set with Klebsiella pneumoniae [10], in the data set on Trichosporon asahii, in the data set on Pseudomonas aeruginosa and in the data set with Klebsiella pneumoniae [12] was inactive. In addition, the outcome (in the data set with Candida albicans; with Aspergillus fumigatus; in the data set with Escherichia coli; in the data set with Staphylococcus aureus [16]; in [17]) was inactive. Also, the Activity result in the data set on Salmonella typhimurium [1] and with Salmonella typhimurium [13] was “Toxic” each time. The minimal inhibitory concentration (MIC) (usually the lowest concentration found to suppress growth) against Mycobacterium kansasii [4] is 2 µM (≈ 0.839 µg/mL); against Mycobacterium kansasii [6], 8 µM (≈ 3.35 µg/mL); in [8], 1 µM (≈ 0.419 µg/mL); in the data set on Mycobacterium kansasii [9] it was 4 µM (≈ 1.68 µg/mL); against Mycobacterium kansasii [11], 8 µM (≈ 3.35 µg/mL); with Mycobacterium kansasii [14], 4 µM (≈ 1.68 µg/mL). The MIC turned out to be 4 µM (≈ 1.68 µg/mL) against Mycobacterium kansasii [15], 32 µM (≈ 13.4 µg/mL) in the data set with Mycobacterium avium [18], 32 µM (≈ 13.4 µg/mL) in the data set with Mycobacterium avium [19] and 2 µM (≈ 0.839 µg/mL) in data set [20]. Further, the half-inhibitory concentration (IC50) in [7] is 71 µM.

For `O=[N+]([O-])c1cc(C[Se]c2nnn(Cc3ccccc3)n2)cc([N+](=O)[O-])c1`, the outcome (in the data set with Pichia kudriavzevii; with Klebsiella pneumoniae [2]; in the data set with Lichtheimia corymbifera; with Nakaseomyces glabratus; in data set [3]; in the data set on Candida tropicalis) was inactive. For the same molecule, the result in the data set on Staphylococcus aureus [5], in the data set on Enterococcus faecalis, with Klebsiella pneumoniae [10], with Trichosporon asahii, with Pseudomonas aeruginosa and in the data set with Klebsiella pneumoniae [12] was inactive. For the same molecule, the outcome (in the data set on Candida albicans; in the data set with Aspergillus fumigatus; with Escherichia coli; with Staphylococcus aureus [16]; in data set [17]) was inactive. The Activity entry in the data set with Salmonella typhimurium [1] and in the data set with Salmonella typhimurium [13] was “Toxic” each time. For the same molecule, the MIC with Mycobacterium kansasii [4] stood at 1 µM (≈ 0.419 µg/mL); in the data set on Mycobacterium kansasii [6], 1 µM (≈ 0.419 µg/mL); in [8] it was 1 µM (≈ 0.419 µg/mL); in the data set on Mycobacterium kansasii [9] it was 1 µM (≈ 0.419 µg/mL); against Mycobacterium kansasii [11], 2 µM (≈ 0.839 µg/mL); against Mycobacterium kansasii [14] it was 1 µM (≈ 0.419 µg/mL). Also, the MIC in the data set with Mycobacterium kansasii [15] worked out at 1 µM (≈ 0.419 µg/mL); in the data set on Mycobacterium avium [18] it was 32 µM (≈ 13.4 µg/mL); with Mycobacterium avium [19] it was 16 µM (≈ 6.71 µg/mL); in [20] it was 1 µM (≈ 0.419 µg/mL). Also, the concentration for half-maximal inhibition (IC50) in [7] stood at 136 µM.
